Assay results taken from patent US20050208549A1, “Testing endosymbiont cellular organelles and compounds identifiable therewith” (priority 2000, published 2005).

Assays:
Fibroblasts = assay: One-tube duplex NASBA ratio of mitochondrial RNA and chromosomal DNA in fibroblasts cultured with ddC; format: cell-based
Description: In this example, the NASBA nucleic acid amplification reactions for DNA target sequences were performed in a 20 μl reaction volume and contained: 40 mM Tris-pH 8.5, 70 mM KCl, 12 mM MgCl2, 5 mM dithiotreitol, 1 mM dNTPs (each), 2 mM rNTPs (each), 0.2 μM primer (each), 0.05 μM molecular beacon, 1.5 units restriction enzyme Msp I, 375 mM sorbitol, 0.105 μg/μl bovine serum albumin, 6.4 units AMV RT, 32 units T7 RNA polymerase, 0.08 units RNAse H and input nucleic acid. The complete mixture, except the enzymes sorbitol and bovine serum albumin, was, prior to adding the enzyme mixture, incubated at 37° C. for 25 minutes and subsequently heated to 95° C. for two minutes in order to denature the DNA and to allow the primers to anneal. After cooling the mixture to 41° C., the enzyme mixture was added. The amplification took place at 41° C. for 90 minutes in a fluorimeter (CytoFluor 2000) and the fluorescent signal was measured every minute (using the filter set 530/25 nm and 485/30 nm). To achieve quantification, a dilution series of target sequence for a particular primer set was amplified and the time points at which the reactions became positive (the time to positivity, TTP) were plotted against the input amounts of nucleic acid. This way a calibration curve was created that could be used to read TTP values of reactions with unknown amounts of input and deduce the input amount. […] After five days, the cells were harvested and analyzed for an amount of chromosomal DNA (primers SnrpD p1 and SnrpD2 p2 and probe SnrpD mb) with the described NASBA protocol in the chapter “Used ingredients and general methodology” and compared with the NASBA protocol as described in this example. […]
Different ratios of mitochondrial RNA target and chromosomal DNA target in a plasmid were analyzed in this example: 2×10^3 U1a DNA/5×10^4 Mt RNA, 2×10^3 U1a DNA/2.5×10^5 Mt RNA, 2×10^3 U1a DNA/5×10^5 Mt RNA, 2×10^3 U1a DNA/2.5×10^6 Mt RNA, 2×10^3 U1a DNA/5×10^6 Mt RNA, 2×10^3 U1a DNA/10^7 Mt RNA, 2×10^3 U1a DNA/2.5×10^7 Mt RNA molecules were included. […]

Fibroblast cells = assay: NASBA ratio of mitochondrial RNA to mitochondrial DNA in cultured fibroblast cells; format: cell-based; settings: culture period of four weeks, antiviral drugs at 3 μM and 30 μM
Description: In Table 1, the primers and probes used in the examples are summarized. Standard NASBA nucleic acid amplification reactions were performed in a 20 μl reaction volume and contained: 40 mM Tris-pH 8.5, 70 mM KCl, 12 mM MgCl2, 5 mM dithiothreitol, 1 mM dNTPs (each), 2 mM rNTPs (each), 0.2 μM primer (each), 0.05 μM molecular beacon, 375 mM sorbitol, 0.105 μg/μl bovine serum albumin, 6.4 units AMV RT, 32 units T7 RNA polymerase, 0.08 units RNAse H and input nucleic acid. The complete mixture, except the enzymes, sorbitol and/or bovine serum albumin was, prior to adding the enzyme mixture, heated to 65° C. for two minutes in order to denature any secondary structure in the RNA and to allow the primers to anneal. After cooling the mixture to 41° C., the enzymes were added. The amplification took place at 41° C. for 90 minutes in a fluorimeter (CytoFluor 2000) and the fluorescent signal was measured every minute (using the filter set 530/25 nm and 485/30 nm). […]
To achieve quantification, a dilution series of target sequences for a particular primer set was amplified and the time points at which the reactions became positive (the time to positivity, TTP) were plotted against the input amounts of nucleic acid. This way a calibration curve was created that could be used to read TTP values of reactions with unknown amounts of input and deduce the input amount. […]

SMILES	amount of mitochondrial RNA in continued culture in the absence of ddC (Fibroblasts; ddC 30 μM eight weeks, then without ddC (week 10, 12, 14 and 16))	amount of mitochondrial RNA in continued culture in the presence of ddC (Fibroblasts; ddC 30 μM, after week eight, another eight weeks)	mitochondrial RNA of fibroblasts in the presence of ddC (Fibroblasts; ddC 30 μM, eight weeks, FIG. 23)	change in mitochondrial RNA to mitochondrial DNA ratio (Fibroblast cells)
Nc1ccn([C@H]2CC[C@@H](CO)O2)c(=O)n1 [ddC]	clear rebound	remains very low	lose their mitochondrial RNA	–
Cc1cn([C@H]2C[C@H](N=[N+]=[N-])[C@@H](CO)O2)c(=O)[nH]c1=O [AZT]	–	–	–	no measurable change
